From publication PMC9241959 (Chemical Science, 2022)

Target: Phaseolus vulgaris erythroagglutinin (PHA-E) (Phaseolus vulgaris, UniProt P05088)
Assay: glycan microarray, fluorescence
Format: binding
Conditions: labelled compound: immobilised AEAB conjugate at reducing end

Phaseolus vulgaris erythroagglutinin (PHA-E), sequence (P05088 22-275 limits assumed): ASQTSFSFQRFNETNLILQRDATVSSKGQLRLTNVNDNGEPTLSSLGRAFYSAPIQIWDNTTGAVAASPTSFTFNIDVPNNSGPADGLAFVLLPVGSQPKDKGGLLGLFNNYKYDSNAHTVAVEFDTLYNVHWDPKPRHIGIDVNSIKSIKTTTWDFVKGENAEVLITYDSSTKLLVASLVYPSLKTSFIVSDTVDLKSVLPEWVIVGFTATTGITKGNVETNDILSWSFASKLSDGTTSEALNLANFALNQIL

## CC(=O)N[C@H]1[C@H](O[C@H]2[C@H](O)[C@@H](NC(C)=O)C(O)O[C@@H]2CO)O[C@H](CO)[C@@H](O[C@@H]2O[C@H](CO[C@H]3O[C@H](CO)[C@@H](O)[C@H](O)[C@@H]3O[C@@H]3O[C@H](CO)[C@@H](O)[C@H](O)[C@H]3NC(C)=O)[C@@H](O[C@@H]3O[C@H](CO)[C@@H](O)[C@H](O)[C@H]3NC(C)=O)[C@H](O[C@H]3O[C@H](CO)[C@@H](O)[C@H](O)[C@@H]3O[C@@H]3O[C@H](CO)[C@@H](O)[C@H](O)[C@H]3NC(C)=O)[C@@H]2O)[C@@H]1O (stereo partly shown) [compound 1, agalacto bisected N-glycan 1]
  RFU at 1 ug/mL lectin: 9197 RFU
